# According to patent US10023539B2, “Aryl-cyanoguanidine compounds” (Bayer Pharma Aktiengesellschaft, priority 2014, dated 2018):
# Key:
# SMYD2 [1] = molecular target: T1, SMYD2 (Homo sapiens (Human), UniProt Q9NRG4); assay: Scintillation Proximity Assay (SPA) for detection of SMYD2 enzymatic inhibition; format: biochemical; details: methylation of biotinylated p53 Peptide, 3H-SAM, full length SMYD2; read-out: IC50 [mol/l] (SPA Assay)
# Procedure: 1.1 Scintillation Proximity Assay (SPA) for Detection of SMYD2 Enzymatic Inhibition
# The SMYD2 full length enzyme was produced in-house by expression (with an N-terminal 6×His tag) in E. coli and purification by affinity chromatography on a Ni-NTA Sepharose column followed by a size exclusion chromatography step on a Superdex 200 16/60 column (GE Healthcare).
# To this end, 100-fold concentrated compound solutions (in DMSO) were previously prepared by serial dilution (1:3.4) of 2 mM stocks in a clear low volume 384-well source microtiter plate (Greiner Bio-One), from which 50 nl of compound solutions were transferred into a white low volume test microtiter plate from the same supplier. […] The samples were then incubated for 15 min at 22° C. to allow pre-equilibration of the putative enzyme-inhibitor complexes before the start of the methylation reaction, which was initiated by the addition of 2.5 μl 2-fold concentrated solution (in assay buffer) of titrated S-Adenosyl-L-Methionine (3H-SAM, Perkin Elmer, final concentration: 60 nM) and p53 Peptide substrate (final concentration: 1.0 μM). The resulting mixture (5 μl final volume) was shortly centrifuged (2 min., 1500 rpm) and incubated at 22° C. during 30 min. Thereupon the reaction was stopped by adding 3 μl of Streptavidin PS SPA imaging beads (Perkin Elmer, final concentration of 3.12 μg/μl) and “cold” SAM (AK Scientific, 25 μM final concentration) for non-specific binding reduction. Plates containing the stopped reaction were sealed with transparent adhesive foil (Perkin Elmer), centrifuged (2 min., 1500 rpm), and further incubated for—at least—1 h at RT (or overnight at 4° C.) in order to allow the SPA signals to develop. […] IC50 values were calculated by fitting the normalized inhibition data to a 4-parameter logistic equation using the “Screener” analysis software from Genedata.
# SMYD2 [2] = molecular target: T1, SMYD2; assay: In Cell Western (ICW) cell-based assay for detection of SMYD2 methylation activity; details: SMYD2 overexpressing KYSE-150 cells, 72 h treatment, p53K370me1 signal; read-out: IC50 [mol/l] (ICW assay)
# Excerpt: For the detection of SMYD2 cellular methylation activity an In Cell Western (ICW) assay was established. This assay allows rapid processing of multiple samples for SMYD2 methylation derived immunofluorescence signals, with normalization to cell number via the use of the nucleic acid dye DRAQ5. […] To detect SMYD2-mediated methylation signals in cells, a customized antibody directed against mono-methylated lysine 370 on protein p53 (p53K370me1) was used.
# For conducting the ICW assay 5000 SMYD2 overexpressing KYSE-150 cells/well were seeded in 96-well plates (SIGMA) and cultivated for 24 h. As a control for maximal inhibition of ectopic methylation activity, non-transfected KYSE-150 cells were used. Cells were grown in 49% RPMI 1640 with 49% Ham's F12 media supplemented with 2% heat inactivated fetal calf serum (FCS). […] After 5 washes with PBS, the fluorescence in each well was measured on an Odyssey (LI-COR) scanner at 800 nm (p53K370me1 signal; 764 nm excitation) and 700 nm (DRAQ5 signal; 683 nm excitation). Fluorescence intensity was quantified and normalized to background and DRAQ5 signals. IC50 values were calculated by fitting the normalized inhibition data to a 4-parameter logistic equation (Minimum, Maximum, IC50, Hill; Y=Max+(Min−Max)/(1+(X/IC50)Hill)) for each tested compound. […] Ci (maximal inhibition) was defined as the signal measured for non SMYD2 overexpressing KYSE150 cells.
# T1 sequence (Q9NRG4 whole entry): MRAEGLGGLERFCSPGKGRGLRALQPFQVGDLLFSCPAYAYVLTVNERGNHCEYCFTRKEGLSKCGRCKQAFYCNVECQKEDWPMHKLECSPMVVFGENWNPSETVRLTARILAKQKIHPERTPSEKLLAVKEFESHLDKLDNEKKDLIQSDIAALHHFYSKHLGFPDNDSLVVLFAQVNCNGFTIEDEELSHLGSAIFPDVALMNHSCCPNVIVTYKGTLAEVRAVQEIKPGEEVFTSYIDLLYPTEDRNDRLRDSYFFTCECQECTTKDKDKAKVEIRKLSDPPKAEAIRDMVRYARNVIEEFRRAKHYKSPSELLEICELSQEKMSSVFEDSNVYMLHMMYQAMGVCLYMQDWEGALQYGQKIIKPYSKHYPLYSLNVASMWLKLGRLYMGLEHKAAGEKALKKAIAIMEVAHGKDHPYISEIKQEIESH
IC50 (SMYD2 [1]),IC50 (SMYD2 [2]),Compound
144 nM,376 nM,"CCN(C(=O)CO)C1CN(/C(=N\C#N)Nc2ccc(Cl)c(OC(F)F)c2)N=C1c1ccc(Cl)c(Cl)c1 (racemic) [Example 11, Rac-N-[1-{N-[4-chloro-3-(difluoromethoxy)phenyl]-N′-cyanocarbamimidoyl}-3-(3,4-dichlorophenyl)-4,5-dihydro-1H-pyrazol-4-yl]-N-ethyl-2-hydroxyacetamide]"
30.6 nM,–,"CCN(C(=O)CO)C1CN(/C(=N\C#N)Nc2cc(OC(F)(F)F)ccc2OC)N=C1c1ccc(Cl)c(Cl)c1 (racemic) [Example 26, Rac-N-[1-{N′-cyano-N-[2-methoxy-5-(trifluoromethoxy)phenyl]carbamimidoyl}-3-(3,4-dichlorophenyl)-4,5-dihydro-1H-pyrazol-4-yl]-N-ethyl-2-hydroxyacetamide]"
